Among the data in patent US7935707B2, “Imidazole derivatives” (Hoffman-La Roche Inc., priority 2007, dated 2011) are IC50 values, retold here.

The structures appear in SMILES notation. pIC50: −log10 of the molar value.

This experiment deals with T1, human chemokine receptor 2 isoform B (Homo sapiens, UniProt P41597).
T1 construct: host or cells: CHOK1-CCR2B-A5 (CHO-K1)
T1 sequence (P41597 1-360 isoform P41597-2): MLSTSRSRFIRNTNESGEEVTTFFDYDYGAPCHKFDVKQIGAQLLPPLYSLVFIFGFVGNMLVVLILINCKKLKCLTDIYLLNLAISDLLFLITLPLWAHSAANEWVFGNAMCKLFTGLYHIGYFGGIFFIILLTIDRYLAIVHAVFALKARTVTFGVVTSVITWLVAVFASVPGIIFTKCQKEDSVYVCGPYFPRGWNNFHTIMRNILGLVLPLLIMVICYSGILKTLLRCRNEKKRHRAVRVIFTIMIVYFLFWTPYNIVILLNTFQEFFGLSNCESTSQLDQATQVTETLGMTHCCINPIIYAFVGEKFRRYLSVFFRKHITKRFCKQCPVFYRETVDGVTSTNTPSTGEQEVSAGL
Put plainly: Calcium mobilization assay. The experiment is classed as cell-based. Particulars: CHOK1-CCR2B-A5 cells; antagonist activity against 20 nM MCP-1; FLIPR, Fluo-4. On the procedure: Calcium Mobilization Assay
CHOK1-CCR2B-A5 cells (from Euroscreen) stably overexpressing the human chemokine receptor 2 isoform B were cultured in Nutrient Hams F12 medium supplemented with 5% FBS, 100 U/ml penicillin, 100 μg/ml streptomycin, 400 μg/ml G418 and 5 μg/ml puromycin. For the assay cells were grown overnight in 384-well black clear flat bottom polystyrene plates (Costar) at 37° C. at 5% CO2. After washing with DMEM, 20 mM Hepes, 2.5 mM probenecid, 0.1% BSA (DMEM assay buffer) cells were loaded with 4 μM Fluo-4 in the same DMEM assay buffer for 2 hours at 30° C. Excess dye was removed and cells were washed with DMEM assay buffer. 384-well compound plates were prepared with DMEM assay buffer/0.5% DMSO with or without various concentrations of test compounds. Usually compounds were tested for agonist and antagonist activity.
Test compounds were added to the assay plate and agonist activity was monitored as fluorescence for 80 seconds with a FLIPR (488 nm excitation; 510-570 nm emission; Molecular Devices). After 20-30 min. of incubation at 30° C., 20 nM MCP-1 (R&D; Roche) was added and fluorescence was monitored again for 80 seconds. Increases in intracellular calcium are reported as maximum fluorescence after agonist exposure minus basal fluorescence before exposure. Antagonist activity is indicated as inhibitor concentration required for 50% inhibition of specific calcium increases.

Take `CCCCCCc1cccc(-c2nc(I)c(C(=O)N3CCC(N(CC)CC)C3)n2C)c1` (racemic) [Example 1, (rac)-(3-Diethylamino-pyrrolidin-1-yl)-[2-(3-hexyl-phenyl)-5-iodo-3-methyl-3H-imidazol-4-yl]-methanone]: the pIC50 was 6.92.

Turning to `CCCCCCc1cccc(-c2nc(I)c(C(=O)N3CCCN(CCO)CC3)n2C)c1` [Example 3, [2-(3-Hexyl-phenyl)-5-iodo-3-methyl-3H-imidazol-4-yl]-[4-(2-hydroxy-ethyl)-[1,4]diazepan-1-yl]-methanone], the pIC50 was 6.89.

For `C#Cc1nc(-c2cccc(CCCCCC)c2)n(C)c1C(=O)N1CCC(N2CCCC2)CC1` [Example 13, [5-Ethynyl-2-(3-hexyl-phenyl)-3-methyl-3H-imidazol-4-yl]-(4-pyrrolidin-1-yl-piperidin-1-yl)-methanone], the pIC50 is 7.46.

Consider `CCCCCCc1cccc(-c2nc(C#N)c(C(=O)N3CCC(N4CCCC4)CC3)n2C)c1` [Example 18, 2-(3-Hexyl-phenyl)-1-methyl-5-(4-pyrrolidin-1-yl-piperidine-1-carbonyl)-1H-imidazole-4-carbonitrile], for which the pIC50 is 7.12.

For `Cn1c(-c2cccc(OC(F)(F)F)c2)nc(-c2cncnc2)c1C(=O)N1CCC(N2CCCC2)CC1` [Example 22, [3-Methyl-5-pyrimidin-5-yl-2-(3-trifluoromethoxy-phenyl)-3H-imidazol-4-yl]-(4-pyrrolidin-1-yl-piperidin-1-yl)-methanone], the negative logarithm of the IC50 (pIC50) is 7.05.

On to `CCc1nc(-c2cccc(OC(F)(F)F)c2)n(C)c1C(=O)N1CCC(N2CCCC2)CC1` [Example 25, [5-Ethyl-3-methyl-2-(3-trifluoromethoxy-phenyl)-3H-imidazol-4-yl]-(4-pyrrolidin-1-yl-piperidin-1-yl)-methanone], for which the negative-log IC50 (pIC50) is 7.15.

Take `Cn1c(-c2cccc(C(F)(F)F)c2)nc(I)c1C(=O)N1CCC(N2CCCC2)CC1` [Example 36, [5-Iodo-3-methyl-2-(3-trifluoromethyl-phenyl)-3H-imidazol-4-yl]-(4-pyrrolidin-1-yl-piperidin-1-yl)-methanone]: the pIC50 was 7.74.

Turning to `Cn1c(-c2cccc(OC(F)(F)F)c2)nc(I)c1C(=O)N1CCC(N2CCC[C@@H]2CO)CC1` [Example 46, [4-((R)-2-Hydroxymethyl-pyrrolidin-1-yl)-piperidin-1-yl]-[5-iodo-3-methyl-2-(3-trifluoromethoxy-phenyl)-3H-imidazol-4-yl]-methanone], the negative logarithm of the IC50 (pIC50) was 6.80.
